According to patent US20250049930A1, “PROTAC MOLECULES TARGETING FOXP3 AND USES THEREOF” (CEDARS-SINAI MEDICAL CENTER, priority 2022, published 2025):
Residues, ends and D or L forms follow the SMILES beside them. *: point of attachment. X1 = O=C1CCC(N2C(=O)c3cccc(*)c3C2=O)C(=O)N1; PEG4 = NCCOCCOCCOCCOCCC(=O)O

Assays:
FoxP3 = target: T1, FoxP3 (Mus musculus, UniProt Q99JB6); assay: FoxP3 in CD4+ cells of mouse splenocytes treated in vitro, flow cytometry; type: cell-based
T1 construct: from tissue; host or cells: peripheral blood and spleen of mice
T1 sequence (Q99JB6 1-429): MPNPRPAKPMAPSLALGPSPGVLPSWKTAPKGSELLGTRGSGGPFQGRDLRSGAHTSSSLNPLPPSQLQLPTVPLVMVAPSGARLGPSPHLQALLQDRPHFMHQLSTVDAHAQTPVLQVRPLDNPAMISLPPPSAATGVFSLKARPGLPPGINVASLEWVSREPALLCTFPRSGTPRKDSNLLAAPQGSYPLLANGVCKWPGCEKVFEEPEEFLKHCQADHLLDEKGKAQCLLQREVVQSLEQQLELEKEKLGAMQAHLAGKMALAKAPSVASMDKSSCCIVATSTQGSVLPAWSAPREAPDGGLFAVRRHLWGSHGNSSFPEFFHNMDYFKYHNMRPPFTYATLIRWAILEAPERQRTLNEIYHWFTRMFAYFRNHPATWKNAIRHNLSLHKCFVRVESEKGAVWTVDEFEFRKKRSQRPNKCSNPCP
Method: FIGS. 2A-2E depict that a proteolysis-targeting chimera (PROTAC) targeting FoxP3 (PF) degraded FoxP3 in vitro and in vivo. P-FoxP3 forms a ternary complex with cereblon and FoxP3. Surface plasmon resonance (SPR) assay was used to measure the equilibrium dissociation constant (KD) for the ternary complex consisting of cereblon, P-FoxP3 and FoxP3 (FIG. 2A). SPR assay was used to measure the KD for the binary complex consisting of cereblon and P-FoxP3 (FIG. 2B). Mouse splenocytes were treated in vitro with varying PF concentrations and percent of CD4+ cells staining for intracellular FoxP3 was assessed by flow cytometry. (FIG. 2C). […] 72 hours later, FoxP3 positive CD4+ cells in peripheral blood and spleen were assessed by flow cytometry (FIG. 2D). FoxP3 positive CD4+ cells in peripheral blood were assessed by flow cytometry at various timepoints following PF administration (FIG. 2E). […]
To determine if PF results in the degradation of FoxP3, mouse splenocytes were treated in vitro with varying concentrations of PF and percent of CD4+ cells staining for intracellular FoxP3 was assessed by flow cytometry. […] 72 hours later, FoxP3 positive CD4+ cells in peripheral blood and spleen were assessed by flow cytometry. […] To understand the time course of FoxP3 decrease, serial blood draws were assessed after a single injection of PF (FIG. 2E). […]

RENCA tumors = assay: Subcutaneous RENCA tumor growth in mice; type: in vivo; conditions: s.c. RENCA in Balb/C mice, i.p. treatment from day 10, vs saline
Method: Mice: Balb/C mice, 5-8 weeks old, were purchased from Jackson laboratory (Ellsworth, Maine) and housed under pathogen free conditions. All experiments involving animals followed federal and state standards, which include the federal Animal Welfare Act and the NIH guide for the care and use of laboratory animals. The RENCA tumors were generated by subcutaneously injecting 2×10^5 tumor cells into the frank. The day tumor cells were injected was considered day 0. PF (0.1 mmol), PC (0.1 mmol) or P60 (100 ug) was administered i.p. twice a week starting on day 10; αPD1 (200 μg) was administered i.p. twice a week starting on day 5; temsirolimus (15 μg) was administered i.p. every other day, starting on day 10. All drugs were administered throughout the experimental course unless indicated. CD8 cells were depleted with a one-time αCD8 (200 μg) i.p. administration on day 2.
In cancer, Tregs can suppress the antitumor immune response, which is primarily mediated by CD8+ lymphocytes. Therefore, PF was administered to mice to enhance antitumor immunity and suppress growth of syngeneic mouse kidney cancer, which is considered an immunoresponsive cancer type. Mice tumors were established by injecting RENCA cells subcutaneously in the flank of Balb/C mice (5-7 mice per group). RENCA cells were injected subcutaneously to establish palpable tumors, and 10 days later mice were treated i.p., twice a week throughout the experiment, with PF, PC, P60 or Saline (FIG. 3D). Pomalidomide conjugated to (PEG)4 (PROTAC-control; PC) and P60 served as controls. […] In summary, PF decreased the immunosuppressive function of Tregs in vitro and decreased tumor growth in mice. […]
All immunotherapies, particularly when multi-drug combinations are involved, may have off-target effects. For example, drugs may have direct effects on the tumor, inhibiting tumor proliferation or inducing tumor apoptosis. Mice tumors were established by injecting RENCA cell subcutaneously in the flank of Balb/C mice (6-8 mice per group). 10 days later, mice were treated with PF twice per week. CD8 lymphocytes were depleted with αCD8 administered i.p. 2 days after injection of tumor cells. Mice in indicated groups received i.p. αPD1, twice a week, starting day 5 (FIG. 5A). Mice in indicated groups received i.p. temsirolimus every other day for 14 days, starting on days 10 (FIG. 5B). Tumor growth was monitored in these groups. […]

With `CSCC[C@H](NC(=O)[C@H](C)NC(=O)[C@H](Cc1ccccc1)NC(=O)[C@H](Cc1ccccc1)NC(=O)[C@@H]1CCCN1C(=O)[C@H](Cc1c[nH]c2ccccc12)NC(=O)[C@H](CCSC)NC(=O)[C@H](CCCCN)NC(=O)[C@H](CCCNC(=N)N)NC(=O)[C@H](Cc1ccccc1)NC(=O)[C@H](CO)NC(=O)[C@H](CCC(N)=O)NC(=O)[C@H](Cc1ccccc1)NC(=O)[C@H](CC(=O)O)NC(=O)[C@H](CCCNC(=N)N)NC(=O)CCOCCOCCOCCOCCNc1cccc2c1C(=O)N(C1CCC(=O)NC1=O)C2=O)C(=O)O` (stereo partly shown) [PF, Pomalidomide-PEG4-RDFQSFRKMWPFFAM] ({X1-PEG4}-RDFQSFRKMWPFFAM-OH) the “FoxP3 in CD4+ cells” value (FoxP3; fresh mouse splenocytes cultured with IL-2, 1 μm P-FoxP3, 7 days, vs without P-FoxP3) was “degraded FoxP3 in CD4+ cells”, the “percent of CD4+ cells staining for intracellular FoxP3” value (FoxP3; mouse splenocytes treated in vitro with varying PF concentrations) was “decreased in a dose-dependent manner” and the “tumor growth, single agent” value (RENCA tumors) was “produced a decrease in tumor growth”. The “tumor growth, single agent” value (RENCA tumors; listed as P-FoxP3) was “appeared to decrease tumor growth compared to saline control”.
